Reference: ChEMBL document CHEMBL3120080, “Characterization of lovastatin-docosahexaenoate anticancer properties against breast cancer cells” (Bioorg Med Chem, 2014)
Active and inactive are the calls of the source. The calls are words filed in the database; no cut-off is given here.

Columns and labels:
AU565 [1] = experiment: Total growth inhibition of ER-negative, HER2-positive human AU565 cells at >15 uM after 48 hrs by WST-1 assay; type: functional, cell-based
MDA-MB-231 [2] = experiment: Cell cycle arrest in PR, ER, HER2-negative human MDA-MB-231 cells assessed as accumulation at S phase at 1 uM after 30 hrs by flow cytometer (reference value: 33.1 +/-0.3%); type: functional
MDA-MB-231 [3] = experiment: Induction of apoptosis in human MDA-MB-231 cells assessed as apoptotic cells at 5 uM after 48 hrs by annexin V/propidium iodide based flow cytometry (reference value: 2.4 +/-0.5%); type: functional
MDA-MB-231 [4] = experiment: Induction of apoptosis in human MDA-MB-231 cells assessed as necrotic cells at 10 uM after 48 hrs by annexin V/propidium iodide based flow cytometry (reference value: 4.4 +/-0.4%); type: functional
MDA-MB-231 [5] = experiment: Induction of apoptosis in human MDA-MB-231 cells assessed as viable cells at 10 uM after 48 hrs by annexin V/propidium iodide based flow cytometry (reference value: 93.2 +/-0.9%); type: functional; conditions: MDA-MB-231, 48 h, read-out: Activity
HMEC [6] = experiment: Cytotoxicity against human HMEC assessed as growth inhibition after 48 hrs by WST-1 assay; type: cell-based
MDA-MB-231 [7] = experiment: Induction of apoptosis in human MDA-MB-231 cells assessed as apoptotic cells at 1 uM after 48 hrs by annexin V/propidium iodide based flow cytometry (reference value: 2.4 +/-0.5%); type: functional
MDA-MB-231 [8] = experiment: Induction of apoptosis in human MDA-MB-231 cells assessed as viable cells at 5 uM after 48 hrs by annexin V/propidium iodide based flow cytometry (reference value: 93.2 +/-0.9%); type: functional; conditions: MDA-MB-231, 48 h, read-out: Activity
MDA-MB-231 [9] = experiment: Cell cycle arrest in PR, ER, HER2-negative human MDA-MB-231 cells assessed as accumulation at G0/G1 phase at 1 uM after 30 hrs by flow cytometer (reference value: 49.8 +/-1.5%); type: functional
MDA-MB-468 [10] = experiment: Growth inhibition of PR, ER, HER2-negative human MDA-MB-468 cells after 48 hrs by WST-1 assay; type: functional, cell-based
MDA-MB-361 [11] = experiment: Growth inhibition of ER-positive, HER2-positive human MDA-MB-361 cells after 48 hrs by WST-1 assay; type: functional, cell-based
MDA-MB-231 [12] = experiment: Induction of apoptosis in human MDA-MB-231 cells assessed as apoptotic cells at 10 uM after 48 hrs by annexin V/propidium iodide based flow cytometry (reference value: 2.4 +/-0.5%); type: functional
MCF7 [13] = experiment: Growth inhibition of ER-positive, HER2-negative human MCF7 cells after 48 hrs by WST-1 assay; type: functional, cell-based
MDA-MB-231 [14] = experiment: Cell cycle arrest in PR, ER, HER2-negative human MDA-MB-231 cells assessed as accumulation at G0/G1 phase at 10 uM after 30 hrs by flow cytometer (reference value: 49.8 +/-1.5%); type: functional
MDA-MB-231 [15] = experiment: Induction of apoptosis in human MDA-MB-231 cells assessed as necrotic cells at 5 uM after 48 hrs by annexin V/propidium iodide based flow cytometry (reference value: 4.4 +/-0.4%); type: functional
MDA-MB-231 [16] = experiment: Cell cycle arrest in PR, ER, HER2-negative human MDA-MB-231 cells assessed as accumulation at G2/M phase at 1 uM after 30 hrs by flow cytometer (reference value: 17.1 +/-2.1%); type: functional
MDA-MB-231 [17] = experiment: Downregulation of p21 expression in human PR, ER, HER2-negative human MDA-MB-231 cells at 10 uM after 24 hrs by western blot analysis; type: functional, cell-based
MDA-MB-231 [18] = experiment: Cell cycle arrest in PR, ER, HER2-negative human MDA-MB-231 cells assessed as accumulation at G2/M phase at 10 uM after 30 hrs by flow cytometer (reference value: 17.1 +/-2.1%); type: functional
MDA-MB-231 [19] = experiment: Cell cycle arrest in PR, ER, HER2-negative human MDA-MB-231 cells assessed as accumulation at S phase at 10 uM after 30 hrs by flow cytometer (reference value: 33.1 +/-0.3%); type: functional
MDA-MB-231 [20] = experiment: Growth inhibition of PR, ER, HER2-negative human MDA-MB-231 cells at <25 uM after 48 hrs by WST-1 assay; type: functional, cell-based
MDA-MB-231 [21] = experiment: Induction of apoptosis in human MDA-MB-231 cells assessed as necrotic cells at 1 uM after 48 hrs by annexin V/propidium iodide based flow cytometry (reference value: 4.4 +/-0.4%); type: functional
MDA-MB-231 [22] = experiment: Induction of apoptosis in human MDA-MB-231 cells assessed as viable cells at 1 uM after 48 hrs by annexin V/propidium iodide based flow cytometry (reference value: 93.2 +/-0.9%); type: functional; conditions: MDA-MB-231, 48 h, read-out: Activity
MCF7 [23] = experiment: Total growth inhibition of ER-positive, HER2-negative human MCF7 cells after 48 hrs by WST-1 assay; type: functional, cell-based
MDA-MB-468 [24] = experiment: Cytotoxicity against PR, ER, HER2-negative human MDA-MB-468 cells after 48 hrs by WST-1 assay; type: functional, cell-based
MDA-MB-231 [25] = experiment: Growth inhibition of PR, ER, HER2-negative human MDA-MB-231 cells at 1 uM after 48 hrs by WST-1 assay in presence of mevalonate; type: functional, cell-based
MDA-MB-231 [26] = experiment: Total growth inhibition of PR, ER, HER2-negative human MDA-MB-231 cells at >10 uM after 48 hrs by WST-1 assay; type: functional, cell-based
MDA-MB-231 [27] = experiment: Growth inhibition of PR, ER, HER2-negative human MDA-MB-231 cells after 48 hrs by WST-1 assay in presence of geranylgeranyl pyrophosphate; type: functional, cell-based
MDA-MB-468 [28] = experiment: Total growth inhibition of PR, ER, HER2-negative human MDA-MB-468 cells after 48 hrs by WST-1 assay; type: functional, cell-based
MDA-MB-231 [29] = experiment: Cytotoxicity against PR, ER, HER2-negative human MDA-MB-231 cells after 48 hrs by WST-1 assay; type: functional, cell-based
AU565 [30] = experiment: Growth inhibition of ER-negative, HER2-positive human AU565 cells after 48 hrs by WST-1 assay; type: functional, cell-based
MDA-MB-231 [31] = experiment: Induction of p21 expression in human PR, ER, HER2-negative human MDA-MB-231 cells at 1 to 10 uM after 24 hrs by western blot analysis; type: functional, cell-based
MDA-MB-468 [32] = experiment: Cytotoxicity against PR, ER, HER2-negative human MDA-MB-468 cells at >7.5 uM after 48 hrs by WST-1 assay; type: functional, cell-based
AU565 [33] = experiment: Growth inhibition of ER-negative, HER2-positive human AU565 cells at >5 uM after 48 hrs by WST-1 assay; type: functional, cell-based
HMEC [34] = experiment: Cytotoxicity against human HMEC at >15 uM after 48 hrs by WST-1 assay; type: cell-based
MDA-MB-231 [35] = experiment: Stability of the compound in human MDA-MB-231 cells assessed as DHA content at 5 uM after 24 hrs by gas chromatography; type: ADME, cell-based; conditions: mda-mb-231, 24 h
MDA-MB-231 [36] = experiment: Cytotoxicity against PR, ER, HER2-negative human MDA-MB-231 cells assessed as decrease in cell viability at >5 uM after 48 hrs by WST-1 assay; type: functional, cell-based
Serum = experiment: Stability of the compound in mouse serum at 1 mM after 2 hrs by RP-HPLC analysis; type: ADME; conditions: 1000 µM
MDA-MB-361 [37] = experiment: Cytotoxicity against ER-positive, HER2-positive human MDA-MB-361 cells at higher concentration after 48 hrs by WST-1 assay; type: functional, cell-based
AU565 [38] = experiment: Cytotoxicity against ER-negative, HER2-positive human AU565 cells after 48 hrs by WST-1 assay; type: functional, cell-based
HMEC [39] = experiment: Cytotoxicity against human HMEC at 25 uM after 48 hrs by WST-1 assay; type: cell-based

For `CC/C=C\C/C=C\C/C=C\C/C=C\C/C=C\C/C=C\CCC(=O)O` [DOCONEXENT], the TGI (AU565 [1]) was “Active”, the Activity (MDA-MB-231 [2]) was 33.8% and the Activity (MDA-MB-231 [3]) was 1.1%. The Activity (MDA-MB-231 [4]) was 5.6%, the viability at 10 µM (MDA-MB-231 [5]) was 92.5% and the Activity (HMEC [6]) was “Dose-dependent effect”. For the same compound, the Activity (MDA-MB-231 [7]) was 2.6%, the viability at 5 µM (MDA-MB-231 [8]) was 96.5% and the Activity (MDA-MB-231 [9]) was 48.7%. For the same compound, the “growth inhibition (GI)” value (MDA-MB-468 [10]) was “Active”, the “growth inhibition (GI)” value (MDA-MB-361 [11]) was “Active” and the Activity (MDA-MB-231 [12]) was 1.9%. For the same compound, the “growth inhibition (GI)” value (MCF7 [13]) was “Active”, the Activity (MDA-MB-231 [14]) was 50.8% and the Activity (MDA-MB-231 [15]) was 2.4%. For the same compound, the Activity (MDA-MB-231 [16]) was 17.5%, the inhibition (MDA-MB-231 [17]) was “Active” and the Activity (MDA-MB-231 [18]) was 16.2%. For the same compound, the Activity (MDA-MB-231 [19]) was 33%, the “growth inhibition (GI)” value (MDA-MB-231 [20]) was “Active” and the Activity (MDA-MB-231 [21]) was 2.9%. The viability at 1 µM (MDA-MB-231 [22]) was 94.5%.

With `CC[C@H](C)C(=O)O[C@H]1C[C@@H](C)C=C2C=C[C@H](C)[C@H](CC[C@@H]3C[C@@H](O)CC(=O)O3)[C@H]21` [LOVASTATIN] the Activity (MDA-MB-231 [2]) was 16.3%, the TGI (MCF7 [23]) was “Active” and the Activity (MDA-MB-231 [3]) was 4.9%. For the same compound, the Activity (MDA-MB-231 [4]) was 11.2%, the viability at 10 µM (MDA-MB-231 [5]) was 84.2% and the Activity (HMEC [6]) was “Toxic”. For the same compound, the Activity (MDA-MB-468 [24]) was “inactive”, the Activity (MDA-MB-231 [7]) was 2.5% and the viability at 5 µM (MDA-MB-231 [8]) was 84.3%. For the same compound, the Activity (MDA-MB-231 [9]) was 74.7%, the “growth inhibition (GI)” value (MDA-MB-231 [25]) was “inactive” and the TGI (MDA-MB-231 [26]) was “Active”. For the same compound, the “growth inhibition (GI)” value (MDA-MB-231 [27]) was “inactive”, the “growth inhibition (GI)” value (MDA-MB-361 [11]) was “Active” and the Activity (MDA-MB-231 [12]) was 4.6%. For the same compound, the Activity (MDA-MB-231 [14]) was 83.9%, the Activity (MDA-MB-231 [15]) was 10.8% and the TGI (MDA-MB-468 [28]) was “Active”. The Activity (MDA-MB-231 [29]) was “inactive”, the Activity (MDA-MB-231 [16]) was 9% and the “growth inhibition (GI)” value (AU565 [30]) was “Active”. For the same compound, the Activity (MDA-MB-231 [18]) was 6.3%, the Activity (MDA-MB-231 [31]) was “Active” and the Activity (MDA-MB-231 [19]) was 9.8%. It also gave an Activity (MDA-MB-231 [21]) of 7.8% and a viability at 1 µM (MDA-MB-231 [22]) of 89.7%.

With `CC/C=C\C/C=C\C/C=C\C/C=C\C/C=C\C/C=C\CCC(=O)O[C@H]1CC(=O)O[C@H](CC[C@@H]2[C@@H]3C(=C[C@H](C)C[C@@H]3OC(=O)[C@@H](C)CC)C=C[C@@H]2C)C1` the Activity (MDA-MB-231 [2]) was 34.9%, the Activity (MDA-MB-468 [32]) was “Active” and the Activity (MDA-MB-231 [3]) was 7.2%. For the same compound, the Activity (MDA-MB-231 [4]) was 35.4%, the viability at 10 µM (MDA-MB-231 [5]) was 40% and the “growth inhibition (GI)” value (AU565 [33]) was “Active”. The Activity (HMEC [34]) was “Toxic”, the Activity (MDA-MB-231 [7]) was 9.2% and the viability at 5 µM (MDA-MB-231 [8]) was 83.3%. The Activity (MDA-MB-231 [9]) was 47.8%, the “growth inhibition (GI)” value (MDA-MB-231 [25]) was “Active” and the Stability (MDA-MB-231 [35]) was “Stable”. The Activity (MDA-MB-231 [36]) was “Active”, the Activity (MDA-MB-231 [12]) was 24.6% and the Stability (Serum) was “Stable”. The “growth inhibition (GI)” value (MCF7 [13]) was “Active”, the Activity (MDA-MB-231 [14]) was 51.2% and the Activity (MDA-MB-361 [37]) was “Active”. The Activity (AU565 [38]) was “inactive”, the Activity (MDA-MB-231 [15]) was 9.6% and the Activity (MDA-MB-231 [16]) was 17.3%. For the same compound, the inhibition (MDA-MB-231 [17]) was “Active”, the Activity (MDA-MB-231 [18]) was 14.1% and the Activity (MDA-MB-231 [19]) was 34.8%. It also gave an Activity (MDA-MB-231 [21]) of 6.7%, an Activity (HMEC [39]) of 25% and a viability at 1 µM (MDA-MB-231 [22]) of 84.1%.
